This is an account of results in publication PMC9609004, “Computational Design, Synthesis, and Pharmacological Evaluation of Naproxen-Guaiacol Chimera for Gastro-Sparing Anti-Inflammatory Response by Selective COX2 Inhibition” (Molecules, 2022).

Where “and” joins values, the source holds several entries; their conditions need not be identical. Equal values may be shown once. Entries after “also recorded” stand apart in the source; their conditions may differ. Read-outs that look alike come from different tables or passages of the source.

Data set [1] addresses T1, COX2 (Homo sapiens, UniProt P35354).
T1 construct: purchased
T1 sequence (P35354 18-604): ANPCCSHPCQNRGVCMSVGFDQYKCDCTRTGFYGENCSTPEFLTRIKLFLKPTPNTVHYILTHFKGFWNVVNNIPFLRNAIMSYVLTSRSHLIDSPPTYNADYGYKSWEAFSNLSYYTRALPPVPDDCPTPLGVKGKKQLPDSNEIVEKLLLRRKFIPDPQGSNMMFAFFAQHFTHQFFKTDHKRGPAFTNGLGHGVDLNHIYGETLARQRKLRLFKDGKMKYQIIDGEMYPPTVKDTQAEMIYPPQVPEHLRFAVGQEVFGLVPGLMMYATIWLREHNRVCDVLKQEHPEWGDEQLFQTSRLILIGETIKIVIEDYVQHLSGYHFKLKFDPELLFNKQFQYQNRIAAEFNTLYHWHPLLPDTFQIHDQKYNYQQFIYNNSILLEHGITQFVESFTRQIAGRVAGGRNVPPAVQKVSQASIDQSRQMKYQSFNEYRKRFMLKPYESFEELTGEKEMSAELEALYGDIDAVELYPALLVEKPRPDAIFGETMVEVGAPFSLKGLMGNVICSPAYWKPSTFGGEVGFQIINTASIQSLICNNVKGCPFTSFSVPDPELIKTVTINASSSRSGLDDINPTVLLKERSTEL
The experiment in a line: Cyclooxygenase (COX2) inhibitory assay, ovine/human COX inhibitor assay kit. The class given is biochemical. The procedure: (§1) After that, 10 µL of arachidonic acid (100 µM), after 2 min of 1 M HCl of 50 µL and Ellman’s reagent, was added. The absorbance at 410 nm was measured spectrophotometrically against the blank. The selectivity index was calculated as follows:SI = IC50 COX1/IC50 COX2

Data set [2] deals with T2, human recombinant 5-LOX (Homo sapiens, UniProt P09917).
T2 construct: purchased
T2 sequence (P09917 1-674): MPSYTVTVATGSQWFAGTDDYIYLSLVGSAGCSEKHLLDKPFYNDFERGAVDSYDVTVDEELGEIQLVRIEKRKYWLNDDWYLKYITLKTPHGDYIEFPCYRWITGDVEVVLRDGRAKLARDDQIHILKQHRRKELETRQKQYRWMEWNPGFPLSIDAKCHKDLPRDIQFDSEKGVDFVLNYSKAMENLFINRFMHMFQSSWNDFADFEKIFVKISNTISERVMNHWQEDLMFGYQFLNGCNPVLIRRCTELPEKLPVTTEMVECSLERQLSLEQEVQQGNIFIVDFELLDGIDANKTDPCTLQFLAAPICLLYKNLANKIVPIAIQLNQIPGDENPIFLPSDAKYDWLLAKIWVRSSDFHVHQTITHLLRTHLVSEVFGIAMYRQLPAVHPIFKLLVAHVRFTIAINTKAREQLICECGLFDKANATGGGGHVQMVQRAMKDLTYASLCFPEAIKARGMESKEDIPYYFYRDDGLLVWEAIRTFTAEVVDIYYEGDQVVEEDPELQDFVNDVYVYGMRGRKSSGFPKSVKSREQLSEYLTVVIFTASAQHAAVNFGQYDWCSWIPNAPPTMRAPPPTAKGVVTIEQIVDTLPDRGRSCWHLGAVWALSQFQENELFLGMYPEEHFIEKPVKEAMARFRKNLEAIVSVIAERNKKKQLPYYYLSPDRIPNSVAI
The experiment in a line: 5-Lipoxygenase inhibitory assay (5-LOX assay kit). In kind it is biochemical. The procedure: The MAS 1696 was tested against human recombinant 5-LOX using a 5-LOX assay kit. Briefly, 5-LOX solution (90 µL) was added with various MAS-1696 concentrations. The arachidonic acid (10 µL) was further added and the absorbance was measured at 490 nm against the blank.

Data set [3] concerns carrageenan-induced paw edema. The experiment in a line: Rat paw edema test induced by carrageenan. The class given is in vivo, Wistar rats. The note with it: carrageenan 1% w/v, 2 h and 4 h, S-naproxen 15 mg/kg p.o., 4-allyl guaiacol 15.46 mg/kg, n = 6. The protocol:
In vivo studies were performed as per the guidelines issued by the WHO, Geneva. The protocol was approved by the IAEC for animal handling. The Wistar rats (male; 225–250 g) and ICR mice (20–25 g) were procured from the Animal House facility of Panjab University Chandigarh. The anti-inflammatory activity of MAS-1696 was determined by injecting carrageenan in rat paws as published by us previously. The different groups of rats with six animals in each group were administered the drug. The fresh solution of carrageenan (Type IV, 0.1 mL, 1%) was used to induce acute edema by injecting it under the plantar aspect of the left hind paw. One […] (0.9%) of saline was administered to the right paw (control group). A plethysmometer was used to measure the change in the paw volume between two and four hours after the carrageenan challenge.

The test system of data set [4] is stomach (gastric ulcers). The experiment in a line: Determination of ulcer index (gastric damage). The class given is in vivo, rats. The note with it: S-naproxen 120 mg/kg p.o., equimolar doses of MAS-1696 or physical mixture; 4 h after treatment; n = 6. The procedure:
The fasting rats were separated into four groups (n = 6). […] After 4 h of treatment, animals were sacrificed and the stomach was separated. This removed stomach was opened along the greater curvature and cleaned using saline to check for ulcers. The ulcers were graded as: 0—Normal texture stomach 0.5—Red coloration 1.0—Spot of ulcers 1.5—Hemorrhagic streaks 2.0—Ulcers up to 3 3.0—Ulcers above 3

The target of data set [5] is T3, COX1 (Ovis aries, UniProt P05979).
T3 construct: purchased
T3 sequence (P05979 25-600): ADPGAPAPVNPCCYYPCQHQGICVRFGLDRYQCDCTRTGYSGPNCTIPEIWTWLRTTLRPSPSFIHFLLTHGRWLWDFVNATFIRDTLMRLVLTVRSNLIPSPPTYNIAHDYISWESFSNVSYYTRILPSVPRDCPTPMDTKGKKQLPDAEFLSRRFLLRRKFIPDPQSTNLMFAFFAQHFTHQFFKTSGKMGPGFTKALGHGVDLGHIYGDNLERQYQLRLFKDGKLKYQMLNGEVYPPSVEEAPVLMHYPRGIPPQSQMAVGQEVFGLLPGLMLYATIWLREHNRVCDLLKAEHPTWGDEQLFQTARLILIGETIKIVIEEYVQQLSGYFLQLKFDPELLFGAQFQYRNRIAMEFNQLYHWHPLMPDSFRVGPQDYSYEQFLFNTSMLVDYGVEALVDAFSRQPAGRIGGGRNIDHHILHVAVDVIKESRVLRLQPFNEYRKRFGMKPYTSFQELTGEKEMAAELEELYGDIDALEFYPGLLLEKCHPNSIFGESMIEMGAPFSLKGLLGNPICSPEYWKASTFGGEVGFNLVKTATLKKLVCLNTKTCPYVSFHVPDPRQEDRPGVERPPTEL
The experiment in a line: Cyclooxygenase (COX1) inhibitory assay, ovine/human COX inhibitor assay kit. The class given is biochemical. The note with it: n = 3, mean ± SD. The procedure: as §1

Data set [6] can be described thus: Partition/distribution coefficient (log P), shake flask method with HPLC. The class given is physicochemical. The note with it: 1-octanol–0.05 M phosphate buffer pH 7.4, 25 °C, n = 2. The protocol:
(§2) The chromatographic purity of the compound MAS-1696, partition coefficient, chemical stability, and metabolic stability were assessed using RP-HPLC. An isocratic elution system of acetonitrile-methanol-water-acetic acid (70:18:12:0.01) was used. An injection volume of 10 µL and flow rate of 1 mL/min with a relative standard deviation of 0.5% reproducibility was maintained.
The aqueous phase and 1-octanol were stirred overnight. The MAS-1696 in 1-octanol (2 mL) and phosphate buffer (5 mL) was stirred at 25 °C in a water bath shaker for 8 h. Both layers were separated and filtered through Millipore’s 0.22 µm nylon membrane filter. The 1-octanol layer was diluted appropriately before being injected into the HPLC. The log P was determined by using the following equation:log Poct/wat = log ([solute]octanol)/([solute]unionized water)

Data set [7] is described as follows: Aqueous solubility in buffer pH 7.4 (HPLC). In kind it is physicochemical. The note with it: aqueous buffer of pH 7.4, HPLC.
A short description of data set [8]: In vitro stability in simulated gastric fluid (HCl buffer pH 2). The class given is physicochemical. The note with it: for % MAS-1696 Left in the Simulated Gastric Fluid of pH 2: 37 °C. The protocol:
as §2
The HCl buffer (pH 2) at 37 °C was used to evaluate the chemical stability of MAS-1696. To a 400 µL solution of MAS-1696 (10 mg/mL in chloroform), 3.6 mL of HCl buffer (pH 2) was added and kept on a shaker plate at 37 °C. Aliquots (400 µL) collected at different time points were mixed with 1600 µL of acetonitrile. After centrifugation, the supernatant was subjected to HPLC analysis. The remaining percentage of MAS-1696 was determined using the formula:% remaining = (peak area at the respective time (min)/peak area at 0 min) × 100

The nature of data set [9]: In vitro human plasma stability. The class given is in vitro ADME. The note with it: for % MAS-1696 Left in Human Plasma: 37 °C. The procedure: as §2
To a 50 µL solution of MAS-1696 (10 mg/mL in chloroform), 900 µL of human plasma was added and kept on a shaker plate at 37 °C. Aliquots (100 µL) were collected at different intervals and mixed with 900 µL of acetonitrile for precipitation of proteins. After centrifugation, the supernatant was subjected to HPLC analysis. The remaining percentage of the conjugate was calculated using the formula:% remaining = (peak area at the respective time (min)/peak area at 0 min) × 100.

Usually IC50 stands for the concentration needed to halve the response being measured. Turning to `COc1ccc2cc([C@H](C)C(=O)O)ccc2c1` [Naproxen, S-naproxen], the IC50 in data set [1] was 20.1 µM; in [2], 36.5 µM. Moreover, the “Anti-inflammatory effect (edema, paw volume)” value (“Anti-inflammatory effect” for short) in data set [3] was “significant decrease in the edema and paw volume”. Also, the “Ulcer score / gastric damage” value in data set [4] is “substantial rise in ulcer score compared with the control”.

For orientation: logP means the decadic logarithm of the partition coefficient of the neutral form, usually between octanol and water. High values mean higher lipophilicity, low ones lower lipophilicity. Usually melting point stands for the temperature of the solid-liquid transition. Compound `C=CCc1ccc(OC(=O)[C@@H](C)c2ccc3cc(OC)ccc3c2)c(OC)c1` [MAS-1696, (S)-4-Allyl-2-methoxyphenyl 2-(2-methoxynaphthalen-6-yl)propanoate] showed a melting point of 99 to 100 °C. Further, the IC50 in data set [5] was 8.5 µM. Besides, in data set [1] (SI = IC50 COX1/IC50 COX2), the “Selectivity Index” value is reported as 1.1. Besides, the IC50 in data set [1] (n = 3, mean ± SD, read-out: IC50 COX2 (converted)) is 7.76 µM. Also, the “Rise in selectivity for COX2 over COX1 (COX selectivity index) compared to naproxen” value in data set [1] (vs parent compound naproxen) worked out at 23%. In addition, the IC50 in data set [2] (n = 3, mean ± SD, read-out: IC50 5-LOX (converted)) was 28.5 µM. Moreover, the “Anti-inflammatory effect” value in data set [3] is “anti-inflammatory potency comparable or even superior to S-naproxen”. The “Anti-inflammatory effect” value in [3] (listed as MAS1696) was “better anti-inflammatory effect when compared with S-naproxen”. Besides, in data set [4], the “Ulcer score / gastric damage” value is “considerably less damage; also recorded: significantly less stomach damage”. Further, the logP at 8 h in data set [6] was 4.7 ± 0.26. The “Solubility (pH 7.4)” value in data set [7] is recorded as “BDL”. Further, the “% MAS-1696 Left in the Simulated Gastric Fluid of pH 2” value (“% MAS-1696 Left … of pH 2” for short) in data set [8] (0 h) is recorded as 100%. Besides, the “% MAS-1696 Left … of pH 2” value in data set [8] (2 h) is recorded as 96.16%. Moreover, in data set [8] (5 h), the “% MAS-1696 Left … of pH 2” value is on record as 90.72%. Further, the “% MAS-1696 Left … of pH 2” value in [8] (8 h) is given as 83.30%. Besides, in data set [8] (12 h), the “% MAS-1696 Left … of pH 2” value was 77% and 77.03%. The “% of MAS-1696 hydrolyzed in simulated gastric fluid” value (“% of MAS-1696 hydrolyzed” below) in data set [8] (pH 2, 0 h) was 0%. In addition, the “% of MAS-1696 hydrolyzed” value in [8] (pH 2, 2 h) is reported as 3.84%. For the same compound, the “% of MAS-1696 hydrolyzed” value in [8] (pH 2, 5 h) is reported as 9.28%. Also, in [8] (pH 2, 8 h), the “% of MAS-1696 hydrolyzed” value is given as 16.7%. Besides, the “% of MAS-1696 hydrolyzed” value in [8] (pH 2, 12 h) was 22.97%. Further, the “% MAS-1696 Left in Human Plasma” value in [9] (0 min) was found to be 100%. The “Hydrolysis in human plasma (in words)” value in data set [9] (80% human plasma, 0, 30 and 60 min) was “completely hydrolyzed within half an hour; also recorded: readily hydrolyzed”. In addition, in data set [9] (30 min), the “% MAS-1696 Left in Human Plasma” value stood at 0%. Besides, the “% MAS-1696 Left in Human Plasma” value in [9] (60 min) was found to be 0%.
